Experimental data from publication PMC6801514, “Structural and Functional Characterization of Three Novel Fungal Amylases with Enhanced Stability and pH Tolerance” (International Journal of Molecular Sciences, 2019).

Target: T1, CfAM (Cordyceps farinosa, UniProt A0A5S8WFA8)
T1 construct: A, B and C domains (native enzyme lacks CBM20); secreted from Aspergillus oryzae MT3568, mature about 48 kDa, no tag told; two monomers in the asymmetric unit
T1 sequence (A0A5S8WFA8 19-460): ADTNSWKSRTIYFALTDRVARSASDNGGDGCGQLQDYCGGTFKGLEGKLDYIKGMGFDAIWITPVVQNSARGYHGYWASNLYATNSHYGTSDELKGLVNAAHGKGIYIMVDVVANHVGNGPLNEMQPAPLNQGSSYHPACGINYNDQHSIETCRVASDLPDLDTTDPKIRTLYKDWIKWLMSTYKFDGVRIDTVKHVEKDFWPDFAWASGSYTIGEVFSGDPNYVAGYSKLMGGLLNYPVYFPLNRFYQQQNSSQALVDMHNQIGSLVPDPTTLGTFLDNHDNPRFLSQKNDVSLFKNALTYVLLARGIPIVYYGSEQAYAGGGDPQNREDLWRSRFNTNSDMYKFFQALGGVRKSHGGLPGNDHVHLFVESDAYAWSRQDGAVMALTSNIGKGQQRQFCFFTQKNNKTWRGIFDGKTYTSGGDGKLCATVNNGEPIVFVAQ
Assay: X-ray crystallography, […] Å
Format: binding
Conditions: co-crystallised with 40 mM acarbose, 12% PEG 3350, 0.2 M NaNO3, CAPS pH 11.0; active-site cleft, subsites -4 to +3; ligand formed from acarbose in crystallo crystal (acarbose added, no maltose additio)

Compound: OC[C@H]1O[C@H](O[C@H]2[C@H](O)[C@@H](O)C(O)O[C@@H]2CO)[C@H](O)[C@@H](O)[C@@H]1O (stereo partly shown) [maltose]
- X-ray crystallography, 1.35 Å: a secondary binding site in domain C was identified and modelled as maltose
